Source: PubChem BioAssay (NCI)
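All cell lines were grown in 96-well plates and treated with compound for 48 hours. The concentration for full growth arrest is given as TGI.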

Legend:
Experiment in all cases: NCI tumour cell line growth inhibition, 48 h
[1] = test system: HCT-116 colon
[2] = test system: M19-MEL melanoma
[3] = test system: COLO 205 colon
[4] = test system: IGROV1 ovarian
[5] = test system: UACC-62 melanoma
[6] = test system: RXF 393 renal
[7] = test system: SK-MEL-2 melanoma
[8] = test system: OVCAR-5 ovarian
[9] = test system: NCI-H226 lung
[10] = test system: MOLT-4 leukemia
[11] = test system: NCI-H460 lung
[12] = test system: DLD-1 colon
[13] = test system: SK-MEL-5 melanoma
[14] = test system: EKVX NSCLC
[15] = test system: HCC-2998 colon
[16] = test system: SNB-19 CNS
[17] = test system: SF-295 CNS
[18] = test system: DMS 273 small cell lung
[19] = test system: OVCAR-3 ovarian
[20] = test system: SN12C renal
[21] = test system: KM12 colon
[22] = test system: SNB-78 CNS
[23] = test system: LXFL 529 NSCLC
[24] = test system: NCI-H23 lung
[25] = test system: SR leukemia
[26] = test system: UO-31 renal
[27] = test system: RPMI-8226 leukemia
[28] = test system: SNB-75 CNS
[29] = test system: U251 CNS
[30] = test system: SW-620 colon
[31] = test system: 786-0 renal
[32] = test system: HCT-15 colon
[33] = test system: KM20L2 colon
[34] = test system: NCI-H522 lung
[35] = test system: A549 NSCLC
[36] = test system: K-562 leukemia
[37] = test system: SK-OV-3 ovarian
[38] = test system: MALME-3M melanoma
[39] = test system: DMS 114 small cell lung
[40] = test system: ACHN renal
[41] = test system: OVCAR-4 ovarian
[42] = test system: SK-MEL-28 melanoma
[43] = test system: XF 498 CNS
[44] = test system: UACC-257 melanoma
[45] = test system: M14 melanoma
[46] = test system: HT29 colon
[47] = test system: HOP-92 NSCLC
[48] = test system: HOP-18 NSCLC
[49] = test system: LOX IMVI melanoma
[50] = test system: TK-10 renal
[51] = test system: OVCAR-8 ovarian
[52] = test system: HOP-62 NSCLC
[53] = test system: SF-268 CNS
[54] = test system: CAKI-1 renal
[55] = test system: CCRF-CEM leukemia
[56] = test system: HL-60(TB) leukemia
[57] = test system: SF-539 CNS
[58] = test system: A498 renal
[59] = test system: RXF-631 renal

## CC(C)(C)c1cc(C(O)(C(F)(F)F)C(F)(F)F)c2c(c1)C(C(F)(F)F)(C(F)(F)F)OC(C)(C(C)(C)C)N2 (configuration not stated)
[1]
  TGI: 13.4 µM
[2]
  TGI: 9.73 µM
[3]
  TGI: 4.02 µM
[4]
  TGI: > 100 µM
[5]
  TGI: 15 µM
[6]
  TGI: 16.2 µM
[7]
  TGI: 17.7 µM
[8]
  TGI: > 100 µM
[9]
  TGI: 8.53 µM
[10]
  TGI: 7.96 µM
[11]
  TGI: 9.25 µM
[12]
  TGI: > 100 µM
[13]
  TGI: 4.7 µM
[14]
  TGI: 22.4 µM
[15]
  TGI: 93.6 µM
[16]
  TGI: > 100 µM
[17]
  TGI: 16.9 µM
[18]
  TGI: 10.8 µM
[19]
  TGI: 9.18 µM
[20]
  TGI: 16.8 µM
[21]
  TGI: > 100 µM
[22]
  TGI: 99 µM
[23]
  TGI: 14.1 µM
[24]
  TGI: 7.41 µM
[25]
  TGI: 8.45 µM
[26]
  TGI: 21 µM
[27]
  TGI: 9.25 µM
[28]
  TGI: 8.96 µM
[29]
  TGI: 10.9 µM
[30]
  TGI: 44.6 µM
[31]
  TGI: 11.6 µM
[32]
  TGI: 14.5 µM
[33]
  TGI: > 100 µM
[34]
  TGI: 5.24 µM
[35]
  TGI: 33.4 µM
[36]
  TGI: 12.7 µM
[37]
  TGI: 6.14 µM
[38]
  TGI: 78.2 µM
[39]
  TGI: 8.64 µM
[40]
  TGI: 12.1 µM
[41]
  TGI: > 100 µM
[42]
  TGI: 28.6 µM
[43]
  TGI: 4.25 µM
[44]
  TGI: 27.4 µM
[45]
  TGI: 13.6 µM
[46]
  TGI: 22.7 µM

## CC1=CC(=O)CC2(C)CC[C@@H]3C[C@]12OC3(C)C (some centres not stated)
[1]
  TGI: > 100 µM
[2]
  TGI: > 100 µM
[47]
  TGI: > 100 µM
[3]
  TGI: > 100 µM
[4]
  TGI: > 100 µM
[5]
  TGI: > 100 µM
[6]
  TGI: > 100 µM
[7]
  TGI: > 100 µM
[48]
  TGI: > 100 µM
[8]
  TGI: > 100 µM
[9]
  TGI: > 100 µM
[10]
  TGI: > 100 µM
[11]
  TGI: > 100 µM
[49]
  TGI: > 100 µM
[50]
  TGI: > 100 µM
[12]
  TGI: > 100 µM
[13]
  TGI: > 100 µM
[51]
  TGI: > 100 µM
[14]
  TGI: > 100 µM
[15]
  TGI: > 100 µM
[16]
  TGI: > 100 µM
[52]
  TGI: > 100 µM
[17]
  TGI: > 100 µM
[53]
  TGI: > 100 µM
[18]
  TGI: > 100 µM
[19]
  TGI: > 100 µM
[54]
  TGI: > 100 µM
[20]
  TGI: > 100 µM
[21]
  TGI: > 100 µM
[22]
  TGI: > 100 µM
[23]
  TGI: > 100 µM
[24]
  TGI: > 100 µM
[25]
  TGI: > 100 µM
[26]
  TGI: > 100 µM
[27]
  TGI: > 100 µM
[55]
  TGI: > 100 µM
[28]
  TGI: > 100 µM
[29]
  TGI: > 100 µM
[30]
  TGI: > 100 µM
[31]
  TGI: > 100 µM
[56]
  TGI: > 100 µM
[32]
  TGI: > 100 µM
[33]
  TGI: > 100 µM
[34]
  TGI: > 100 µM
[35]
  TGI: > 100 µM
[36]
  TGI: > 100 µM
[37]
  TGI: > 100 µM
[38]
  TGI: > 100 µM
[57]
  TGI: > 100 µM
[39]
  TGI: > 100 µM
[40]
  TGI: > 100 µM
[41]
  TGI: > 100 µM
[42]
  TGI: > 100 µM
[43]
  TGI: > 100 µM
[44]
  TGI: > 100 µM
[58]
  TGI: > 100 µM
[45]
  TGI: > 100 µM
[46]
  TGI: > 100 µM

## CCOC(=O)C(=O)Nc1ccccc1C
[1]
  TGI: > 100 µM
[2]
  TGI: > 100 µM
[47]
  TGI: > 100 µM
[3]
  TGI: > 100 µM
[4]
  TGI: > 100 µM
[5]
  TGI: > 100 µM
[6]
  TGI: > 100 µM
[7]
  TGI: > 100 µM
[59]
  TGI: > 100 µM
[8]
  TGI: > 100 µM
[9]
  TGI: > 100 µM
[10]
  TGI: > 100 µM
[11]
  TGI: > 100 µM
[49]
  TGI: > 100 µM
[50]
  TGI: > 100 µM
[12]
  TGI: > 100 µM
[13]
  TGI: > 100 µM
[51]
  TGI: > 100 µM
[14]
  TGI: > 100 µM
[15]
  TGI: > 100 µM
[16]
  TGI: > 100 µM
[52]
  TGI: > 100 µM
[53]
  TGI: > 100 µM
[54]
  TGI: > 100 µM
[20]
  TGI: > 100 µM
[22]
  TGI: > 100 µM
[23]
  TGI: > 100 µM
[24]
  TGI: > 100 µM
[26]
  TGI: > 100 µM
[27]
  TGI: > 100 µM
[55]
  TGI: > 100 µM
[28]
  TGI: > 100 µM
[29]
  TGI: > 100 µM
[30]
  TGI: > 100 µM
[31]
  TGI: > 100 µM
[56]
  TGI: > 100 µM
[32]
  TGI: > 100 µM
[33]
  TGI: > 100 µM
[34]
  TGI: > 100 µM
[35]
  TGI: > 100 µM
[36]
  TGI: > 100 µM
[37]
  TGI: > 100 µM
[38]
  TGI: > 100 µM
[57]
  TGI: > 100 µM
[39]
  TGI: > 100 µM
[40]
  TGI: > 100 µM
[41]
  TGI: > 100 µM
[42]
  TGI: > 100 µM
[43]
  TGI: 87.9 µM
[58]
  TGI: > 100 µM
[45]
  TGI: > 100 µM

## CCOC(=O)C1=C(Nc2ccc(Cl)cc2Cl)OCC1=O
[1]
  TGI: > 100 µM
[2]
  TGI: > 100 µM
[47]
  TGI: > 100 µM
[3]
  TGI: > 100 µM
[4]
  TGI: > 100 µM
[5]
  TGI: > 100 µM
[7]
  TGI: > 100 µM
[59]
  TGI: > 100 µM
[8]
  TGI: > 100 µM
[9]
  TGI: > 100 µM
[10]
  TGI: > 100 µM
[11]
  TGI: > 100 µM
[49]
  TGI: > 100 µM
[50]
  TGI: > 100 µM
[12]
  TGI: > 100 µM
[51]
  TGI: > 100 µM
[15]
  TGI: > 100 µM
[16]
  TGI: > 100 µM
[52]
  TGI: > 100 µM
[17]
  TGI: > 100 µM
[53]
  TGI: > 100 µM
[18]
  TGI: > 100 µM
[19]
  TGI: > 100 µM
[54]
  TGI: > 100 µM
[20]
  TGI: > 100 µM
[21]
  TGI: > 100 µM
[22]
  TGI: > 100 µM
[23]
  TGI: > 100 µM
[24]
  TGI: > 100 µM
[25]
  TGI: > 100 µM
[26]
  TGI: > 100 µM
[27]
  TGI: > 100 µM
[28]
  TGI: > 100 µM
[29]
  TGI: > 100 µM
[30]
  TGI: > 100 µM
[31]
  TGI: > 100 µM
[56]
  TGI: > 100 µM
[32]
  TGI: > 100 µM
[33]
  TGI: > 100 µM
[34]
  TGI: > 100 µM
[35]
  TGI: > 100 µM
[36]
  TGI: > 100 µM
[37]
  TGI: > 100 µM
[38]
  TGI: > 100 µM
[57]
  TGI: > 100 µM
[40]
  TGI: > 100 µM
[41]
  TGI: > 100 µM
[42]
  TGI: > 100 µM
[43]
  TGI: > 100 µM
[44]
  TGI: > 100 µM
[45]
  TGI: > 100 µM
[46]
  TGI: > 100 µM
